Common to all, as to test: p-nitrophenol release, absorbance at […] nm
What all share (format): biochemical, Thermoactinospora rubra

For one assay, the system named is TrBG2. The following applies: optimal temperature 60 °C; optimal pH; pNPGlu assumed as the substrate of Table S5.
The next assay relates to TrBG3. As to conditions: optimal temperature 50 °C; optimal pH; pNPGlu assumed as the substrate of Table S5.
In the next assay the test system is TrBG1. As to conditions: optimal temperature 40 °C; optimal pH; pNPGlu assumed as the substrate of Table S5.
A further assay has as its system TrBG5. The following applies: optimal temperature 50-60 °C; optimal pH; pNPGlu assumed as the substrate of Table S5.

Regarding `O=[N+]([O-])c1ccc(O[C@@H]2O[C@H](CO)[C@@H](O)[C@H](O)[C@H]2O)cc1` [p-nitrophenyl-β-D-glucopyranoside], the Km in the assay on TrBG2 worked out at 0.31 mM; in the assay with TrBG3 it was 5.9 mM; in the assay on TrBG1, 9.8 mM; in the assay on TrBG5, 1.4 mM.
